Assay results reported in PubChem BioAssay (NCI).
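How tested: cells in 96-well plates exposed to compound for 48 hours at five concentrations. The concentration for 50% growth inhibition is given as GI50. TGI: total growth inhibition.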

Columns and labels:
Assay in all cases: NCI anticancer screen, dose series, 48 h
[1] = tested on: PC-3 prostate
[2] = tested on: T-47D breast
[3] = tested on: SK-MEL-2 melanoma
[4] = tested on: UACC-62 melanoma
[5] = tested on: LOX IMVI melanoma
[6] = tested on: MCF7 breast
[7] = tested on: UACC-257 melanoma
[8] = tested on: SF-268 CNS
[9] = tested on: SW-620 colon
[10] = tested on: HOP-92 NSCLC
[11] = tested on: HL-60(TB) leukemia
[12] = tested on: SK-OV-3 ovarian
[13] = tested on: BT-549 breast
[14] = tested on: SNB-19 CNS
[15] = tested on: HT29 colon
[16] = tested on: 786-0 renal
[17] = tested on: A498 renal
[18] = tested on: OVCAR-8 ovarian
[19] = tested on: HCT-116 colon
[20] = tested on: TK-10 renal
[21] = tested on: M14 melanoma
[22] = tested on: SR leukemia
[23] = tested on: RXF 393 renal
[24] = tested on: CAKI-1 renal
[25] = tested on: DU-145 prostate
[26] = tested on: SF-295 CNS
[27] = tested on: MDA-MB-435
[28] = tested on: HCT-15 colon
[29] = tested on: SK-MEL-5 melanoma
[30] = tested on: KM12 colon
[31] = tested on: CCRF-CEM leukemia
[32] = tested on: IGROV1 ovarian
[33] = tested on: ACHN renal
[34] = tested on: SF-539 CNS
[35] = tested on: NCI-H23 lung
[36] = tested on: NCI-H226 lung
[37] = tested on: COLO 205 colon
[38] = tested on: SK-MEL-28 melanoma
[39] = tested on: HOP-62 NSCLC
[40] = tested on: EKVX NSCLC
[41] = tested on: K-562 leukemia
[42] = tested on: U251 CNS
[43] = tested on: HCC-2998 colon
[44] = tested on: HS 578T breast
[45] = tested on: MDA-MB-231 breast
[46] = tested on: RPMI-8226 leukemia
[47] = tested on: OVCAR-4 ovarian
[48] = tested on: SNB-75 CNS
[49] = tested on: MOLT-4 leukemia
[50] = tested on: NCI-H460 lung
[51] = tested on: UO-31 renal
[52] = tested on: NCI/ADR-RES ovarian
[53] = tested on: MALME-3M melanoma
[54] = tested on: OVCAR-3 ovarian
[55] = tested on: SN12C renal
[56] = tested on: OVCAR-5 ovarian
[57] = tested on: NCI-H522 lung
[58] = tested on: A549 NSCLC

CC1=NN(c2nc(N)nc(CC#N)n2)C(C)(C)C1
TGI [1]: > 100 µM | TGI [2]: > 100 µM | TGI [3]: > 100 µM | TGI [4]: > 100 µM | TGI [5]: > 100 µM | TGI [6]: > 100 µM | TGI [7]: > 100 µM | TGI [8]: > 100 µM | TGI [9]: > 100 µM | TGI [10]: > 100 µM | TGI [11]: > 100 µM | TGI [12]: > 100 µM | TGI [13]: > 100 µM | TGI [14]: > 100 µM | TGI [15]: > 100 µM | TGI [16]: > 100 µM | TGI [17]: > 100 µM | TGI [18]: > 100 µM | TGI [19]: > 100 µM | TGI [20]: > 100 µM | TGI [21]: > 100 µM | TGI [22]: > 100 µM | TGI [23]: > 100 µM | TGI [24]: > 100 µM | TGI [25]: > 100 µM | TGI [26]: > 100 µM | TGI [27]: > 100 µM | TGI [28]: > 100 µM | TGI [29]: > 100 µM | TGI [30]: > 100 µM | TGI [31]: > 100 µM | TGI [32]: > 100 µM | TGI [33]: > 100 µM | TGI [34]: > 100 µM | TGI [35]: > 100 µM | TGI [36]: > 100 µM | TGI [37]: > 100 µM | TGI [38]: > 100 µM | TGI [39]: > 100 µM | TGI [40]: > 100 µM | TGI [41]: > 100 µM | TGI [42]: > 100 µM | TGI [43]: > 100 µM | TGI [44]: > 100 µM | TGI [45]: > 100 µM | TGI [46]: > 100 µM | TGI [47]: > 100 µM | TGI [48]: > 100 µM | TGI [49]: > 100 µM | TGI [50]: > 100 µM | TGI [51]: > 100 µM | TGI [52]: > 100 µM

O=C(OCc1ncc(-c2ccc(C(F)(F)F)cc2)c(NC2CCCCCC2)n1)c1c(F)c(F)c(F)c(F)c1F
GI50 [1]: 12 µM | TGI [1]: 26.7 µM | GI50 [2]: 1.97 µM | TGI [2]: 3.99 µM | GI50 [53]: 16.6 µM | TGI [53]: 32.6 µM | GI50 [4]: 14.2 µM | TGI [4]: 29.2 µM | GI50 [6]: 2.06 µM | TGI [6]: 5.81 µM | GI50 [7]: 17.5 µM | TGI [7]: 35 µM | GI50 [8]: 12.9 µM | TGI [8]: 28 µM | GI50 [9]: 7.21 µM | TGI [9]: 26.6 µM | GI50 [11]: 5.53 µM | TGI [11]: 22 µM | GI50 [12]: 21.6 µM | TGI [12]: 39.1 µM | GI50 [13]: 9 µM | TGI [13]: 27.1 µM | GI50 [14]: 14.1 µM | TGI [14]: 27.7 µM | GI50 [54]: 4.09 µM | TGI [54]: 13.8 µM | GI50 [15]: 13.8 µM | TGI [15]: 40 µM | GI50 [16]: 11.4 µM | TGI [16]: 27.2 µM | GI50 [17]: 18.7 µM | TGI [17]: 33.2 µM | GI50 [55]: 12.1 µM | TGI [55]: 28 µM | GI50 [18]: 12.2 µM | TGI [18]: 34 µM | GI50 [19]: 8.46 µM | TGI [19]: 25.9 µM | GI50 [20]: 21.5 µM | TGI [20]: 37 µM | GI50 [21]: 17.3 µM | TGI [21]: 39.6 µM | GI50 [22]: 3.13 µM | TGI [22]: 12.4 µM | GI50 [23]: 5.34 µM | TGI [23]: 21.3 µM | GI50 [24]: 17.5 µM | TGI [24]: 37.3 µM | GI50 [25]: 12.5 µM | TGI [25]: 25.3 µM | GI50 [26]: 17.4 µM | TGI [26]: 33.8 µM | GI50 [27]: 15.8 µM | TGI [27]: 32.6 µM | GI50 [28]: 1.94 µM | TGI [28]: 4.78 µM | GI50 [56]: 20 µM | TGI [56]: 36.5 µM | GI50 [29]: 16 µM | TGI [29]: 30.3 µM | GI50 [30]: 18.1 µM | TGI [30]: 42.5 µM | GI50 [31]: 1.83 µM | TGI [31]: 7.02 µM | GI50 [57]: 3.9 µM | TGI [57]: 14.6 µM | GI50 [32]: 2.86 µM | TGI [32]: 7.28 µM | GI50 [33]: 14.2 µM | TGI [33]: 29.2 µM | GI50 [34]: 16.3 µM | TGI [34]: 30.7 µM | GI50 [35]: 10.6 µM | TGI [35]: 28 µM | GI50 [36]: 5.59 µM | TGI [36]: 21.2 µM | GI50 [37]: 18 µM | TGI [37]: 37.8 µM | GI50 [38]: 11.7 µM | TGI [38]: 24.7 µM | GI50 [39]: 18.8 µM | TGI [39]: 34.3 µM | GI50 [41]: 4.86 µM | TGI [41]: 30.2 µM | GI50 [43]: 16.7 µM | TGI [43]: 32.7 µM | GI50 [44]: 16.2 µM | TGI [44]: 51.9 µM | GI50 [45]: 9.93 µM | TGI [45]: 23.2 µM | GI50 [46]: 3.07 µM | TGI [46]: 9.95 µM | GI50 [47]: 15.5 µM | TGI [47]: 30.6 µM | GI50 [48]: 13 µM | TGI [48]: 25.9 µM | GI50 [49]: 3.42 µM | TGI [49]: 11.8 µM | GI50 [58]: 18.2 µM | TGI [58]: 51.4 µM | GI50 [50]: 17.3 µM | TGI [50]: 40.1 µM | GI50 [51]: 8.12 µM | TGI [51]: 21.3 µM | GI50 [52]: 21.2 µM | TGI [52]: 55.5 µM
